Where “and” joins values, the source holds several entries; their conditions need not be identical. Equal entries are not always repeated. Where two headings read alike, the source gives them in different places.
Assays:
[1] = test system: HeLa FlpIn ENT2 cell line; details: 2 minutes
HeLa S2 cell line = experiment: Functional assessment: NBMPR block of [3H]uridine uptake in HeLa S2 cells; assay type: cell-based, human; details: 100 nM NBMPR, 2 minutes
ENT1 [2] = target: T1, ENT1 (Homo sapiens, UniProt Q99808); experiment: Inhibition of [3H]uridine uptake into WT HeLa; assay type: cell-based; details: for inhibition at 20 µM: HeLa; for ENT1 % Inhibition (±SD): model-predicted compounds from MedChem Express Drug Repurposing Library
T1 sequence (Q99808 1-456): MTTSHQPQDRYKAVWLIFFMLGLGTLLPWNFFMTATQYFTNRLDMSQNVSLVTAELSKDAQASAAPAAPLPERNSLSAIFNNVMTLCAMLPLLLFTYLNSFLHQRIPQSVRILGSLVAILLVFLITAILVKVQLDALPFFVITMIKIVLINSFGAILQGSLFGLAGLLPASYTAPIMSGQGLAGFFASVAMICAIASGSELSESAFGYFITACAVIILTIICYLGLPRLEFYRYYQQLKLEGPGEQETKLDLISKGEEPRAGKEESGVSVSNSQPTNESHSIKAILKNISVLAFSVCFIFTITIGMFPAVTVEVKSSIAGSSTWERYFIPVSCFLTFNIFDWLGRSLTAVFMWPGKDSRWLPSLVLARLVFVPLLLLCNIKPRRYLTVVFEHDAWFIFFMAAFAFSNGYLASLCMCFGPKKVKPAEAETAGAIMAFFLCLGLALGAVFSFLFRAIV

ENT2 [3] = target: T2, ENT2 (Homo sapiens, UniProt Q14542); experiment: Inhibition of [3H]uridine uptake into HeLa FlpIn cells overexpressing hENT2; assay type: cell-based; details: for inhibition at 20 µM: HeLa; for ENT2 % Inhibition (20μM): 20 μM compound, 5 min [3H]uridine uptake, HeLa cells overexpressing hENT2
T2 sequence (Q14542 1-456): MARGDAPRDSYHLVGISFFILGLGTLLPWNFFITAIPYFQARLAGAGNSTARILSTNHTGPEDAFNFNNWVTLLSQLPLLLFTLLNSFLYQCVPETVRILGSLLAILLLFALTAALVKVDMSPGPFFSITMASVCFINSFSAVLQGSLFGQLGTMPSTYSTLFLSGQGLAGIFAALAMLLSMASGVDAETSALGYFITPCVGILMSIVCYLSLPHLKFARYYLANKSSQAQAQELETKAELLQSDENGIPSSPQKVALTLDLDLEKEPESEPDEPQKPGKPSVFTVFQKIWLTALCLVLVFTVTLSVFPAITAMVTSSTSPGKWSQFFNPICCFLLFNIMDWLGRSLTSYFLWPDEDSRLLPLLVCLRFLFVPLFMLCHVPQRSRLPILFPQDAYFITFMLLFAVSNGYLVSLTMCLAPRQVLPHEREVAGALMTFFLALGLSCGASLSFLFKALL

[4] = ref Table S8, cited from earlier work
ENT1 [5] = target: T1, ENT1; experiment: Kinetics of radiolabeled uridine uptake, ENT1 cell line; assay type: cell-based; details: 5 min uptake, pH 7.4
ENT2 [6] = target: T2, ENT2; details: 5 min uptake, pH 7.4
[7] = read-out: ENT1 % Inhibition (±SD)
[8] = read-out: ENT2 % Inhibition (20μM)
[9] = read-out: ENT1 % Inhibition (20μM)
[10] = read-out: ENT2 inhibition of transport activity (Spectrum screen, text)
[11] = read-out: ENT1 inhibition of uridine uptake (Spectrum screen, text)

| inhibition at 20 µM (ENT1 [2]; [7]) | IC50 (ENT2 [3]) | inhibition at 20 µM (ENT2 [3]; [8]) | inhibition at 20 µM (ENT1 [2]; [9]) | SMILES | also measured |
| --- | --- | --- | --- | --- | --- |
| 72.6% | – | – | – | COC(=O)C1=C(C)NC(C)=C(C(=O)OC)C1c1ccccc1[N+](=O)[O-] [Nifedipine] | – |
| 51.3% | – | – | – | COc1ccc2[nH]c([S+]([O-])Cc3ncc(C)c(OC)c3C)nc2c1 (centres unmarked) [Omeprazole (sodium), Omeprazole] | – |
| 54.7% | – | – | – | COc1cc(/C=C/c2ccc(O)cc2)cc(OC)c1 [Pterostilbene] | – |
| 50.3% | – | – | – | COc1cc2c(Nc3ccc(Br)cc3F)ncnc2cc1OCC1CCN(C)CC1 [Vandetanib] | – |
| – | 262 ± 108 µM | 25.4% | 79.6% | CCc1oc2ccccc2c1C(=O)c1cc(Br)c(O)c(Br)c1 [benzbromarone] | IC50 (ENT1 [2]): 29.8 ± 2.1 µM |
| – | 3.82 ± 0.3 µM | 85.1% | 20% | CCOC(=O)c1ncn2c1CN(C)C(=O)c1cc(F)ccc1-2 [flumazenil] | IC50 (ENT1 [2]): 121 ± 0.7 µM |
| – | – | 54.6% | – | COc1cc2ncnc(Nc3ccc(F)c(Cl)c3)c2cc1OCCCN1CCOCC1 [gefitinib] | – |
| – | 22.2 ± 2.2 µM | 82.5% | 95.9% | COc1ccc(-c2cc(=O)c3c(OC)c(OC)c(OC)cc3o2)cc1OC [sinensetin] | inhibition at 20 µM (ENT2 [3]; [10]): 35%; IC50 (ENT1 [2]): 1.25 ± 0.3 µM; inhibition at 20 µM (ENT1 [2]; [11]): ~80% |

The remaining lines, values behind:

| SMILES | inhibition at 20 µM (ENT1 [2]; [7]) | IC50 (ENT2 [3]) | inhibition at 20 µM (ENT2 [3]; [8]) | inhibition at 20 µM (ENT1 [2]; [9]) | also measured |
| --- | --- | --- | --- | --- | --- |
| O=[N+]([O-])c1ccc(CSc2ncnc3c2ncn3C2OC(CO)C(O)C2O)cc1 (centres unmarked) [NBMPR, nitrobenzylthioinosine] | – | – | – | – | total [3H]uridine uptake blocked ([1]; 100 nM NBMPR): ~ 55%; total [3H]uridine uptake reduced ([1]; 100 μM NBMPR): ~ 80%; reduction of [3H]uridine uptake (HeLa S2 cell line): 65–75% |
| CC(=O)O[C@]1(C(C)=O)CC[C@H]2[C@@H]3C=C(C)C4=CC(=O)CC[C@@H]4[C@H]3CC[C@@]21C [Nomegestrol acetate] | 82.9% | – | – | – | – |
| CCCCC1(CCCC)CN(c2ccccc2)c2cc(SC)c(OCC(=O)N[C@@H](C(=O)N[C@@H](CC)C(=O)O)c3ccc(O)cc3)cc2S(=O)(=O)N1 [Odevixibat] | 78.3% | – | – | – | – |
| C=CC(=O)N1CCC(c2ccc(C(N)=O)c(-c3ccc(Oc4ccccc4)cc3)n2)CC1 [Orelabrutinib] | 87.5% | – | – | – | – |
| CCn1cnc2c(-c3ccc(F)c(-c4ccc(S(=O)(=O)CC)cc4OC)c3)cnnc21 [PF-06372865] | – | – | – | – | ENT1 % Inhibition (±SD) (ENT1 [2]; 20 μM): 100.45 (0.02) % |
| Oc1ccc(C2=Cc3ccc(O)cc3OC2)cc1 [Phenoxodiol] | 69.3% | – | – | – | – |
| COc1cccc(-c2nccc3[nH]c(=O)c(-c4noc(C)n4)cc23)c1 [Radequinil] | – | – | – | – | ENT1 % Inhibition (±SD) (ENT1 [2]; 20 μM): 98.17 (0.19) % |
| COc1cc([C@H]2Oc3cc([C@H]4Oc5cc(O)cc(O)c5C(=O)[C@@H]4O)ccc3O[C@@H]2CO)ccc1O [Silybin A] | 67.5% | – | – | – | – |
| C/C=C/c1cc(OC)c(OC)cc1OC [alpha-Asarone] | – | – | – | – | ENT1 % Inhibition (±SD) (ENT1 [2]; 20 μM): 52.42 (3.92) % |
| Cc1ccc([C@@H]2O[C@H](CO)[C@@H](O)[C@H](O)[C@H]2O)cc1Cc1ccc(-c2ccc(F)cc2)s1 [canagliflozin] | – | – | – | – | ENT2 % Inhibition (20μM) (ENT2 [3]): 56.5%; ENT1 % Inhibition (20μM) (ENT1 [2]; 20 μM compound, 5 min [3H]uridine uptake, WT HeLa cells): 74.5%; IC50 (ENT1 [2]; read-out: ENT1 IC50 (μM) ± SD, 5 min uptake of ~10 nM [3H]uridine, WT HeLa cells): 24 ± 5.1 µM |
| O=c1[nH]c2ccccc2n1CCCN1CCC(n2c(=O)[nH]c3cc(Cl)ccc32)CC1 [domperidone] | – | 0.16 ± 0.04 µM | 64.3% | 24.4% | – |
| COc1cc(O)cc(O)c1C(=O)c1ccccc1 [isocotoin] | – | – | – | – | ENT1 inhibition of uridine uptake (Spectrum screen, text) (ENT1 [2]; 20 μM, Spectrum Collection screen (Table S1)): ~ 65%; IC50 (ENT1 [2]; read-out: predicted IC50 for ENT1, predicted from inhibition at 20 μM): 12 µM |
| NC[C@H]1O[C@H](O[C@H]2[C@H](O)[C@@H](O[C@H]3O[C@H](CO)[C@@H](O)[C@H](N)[C@H]3O)[C@H](N)C[C@@H]2N)[C@H](O)[C@@H](O)[C@@H]1O [kanamycin] | – | – | – | – | ENT2 % Inhibition (20μM) (ENT2 [3]): 11.7%; ENT1 % Inhibition (20μM) (ENT1 [2]): 43.7% |
| CC(=O)N1CCN(c2ccc(OCC3COC(Cn4ccnc4)(c4ccc(Cl)cc4Cl)O3)cc2)CC1 (centres unmarked) [ketoconazole] | – | 22.8 ± 0.7 µM | 89.4% | 98.4% | human plasma levels (molar) ([4]; converted from ng/mL): 6.6 µM and 11.3 µM; human plasma levels ([4]; documented clinical concentrations): 3500 ng/mL and 6000 ng/mL; IC50 (ENT1 [2]): 7.2 ± 1.2 µM |
| CCCCc1nc(Cl)c(CO)n1Cc1ccc(-c2ccccc2-c2nn[nH]n2)cc1 [losartan] | – | 172 ± 60.2 µM | 33% | – | – |
| CC(=O)[C@H]1CC[C@H]2[C@@H]3C[C@H](C)C4=CC(=O)CC[C@]4(C)[C@H]3[C@@H](O)C[C@]12C [medrysone] | – | 210 ± 89.2 µM | 56.3% | 95.1% | IC50 (ENT1 [2]): 4.44 ± 0.9 µM |
| O=c1c(O)c(-c2cc(O)c(O)c(O)c2)oc2cc(O)cc(O)c12 [myricetin] | – | 28.2 ± 1.6 µM | – | 82.4% | IC50 (ENT1 [2]): 47.4 ± 1.7 µM |
| C[C@@H]1O[C@@H](O[C@H]2[C@H](Oc3cc(O)c4c(c3)O[C@H](c3ccc(O)cc3)CC4=O)O[C@H](CO)[C@@H](O)[C@@H]2O)[C@H](O)[C@H](O)[C@H]1O [naringin] | – | 266 ± 81.5 µM | 8.5% | 24.4% | IC50 (ENT1 [2]): 101 ± 8.9 µM |
| O=c1c(O)c(-c2ccc(O)c(O)c2)oc2cc(O)cc(O)c12 [quercetin] | – | 117 ± 24.6 µM | 84.3% | 53.1% | IC50 (ENT1 [2]): 20.6 ± 6.8 µM |
| C=CC[C@@H]1/C=C(\C)C[C@H](C)C[C@H](OC)[C@H]2O[C@@](O)(C(=O)C(=O)N3CCCC[C@H]3C(=O)O[C@H](/C(C)=C/[C@@H]3CC[C@@H](O)[C@H](OC)C3)[C@H](C)[C@@H](O)CC1=O)[C@H](C)C[C@@H]2OC [tacrolimus] | – | – | – | – | inhibition at 20 µM (ENT2 [3]; [10]): 35%; inhibition at 20 µM (ENT1 [2]; [11]): ~80% |
| O=c1ccn([C@@H]2O[C@H](CO)[C@@H](O)[C@H]2O)c(=O)[nH]1 [uridine] | – | – | – | – | Jmax, maximal rate of uridine transport (ENT1 [5]): 20.2 ± 5.1 pmol·cm^−2·min^−1; Kt, Michaelis constant for uridine (ENT1 [5]): 37.7 ± 12.9 µM; Kt, Michaelis constant for uridine (ENT2 [6]): 119.1 ± 28.9 µM |

From PMC12486301 (The Journal of pharmacology and experimental therapeutics, 2025)
